# Measurements from ChEMBL document CHEMBL1201862, “PubChem BioAssay data set” (2004).
#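 These data come from cells grown in 96-well plates and exposed to compound for 48 hours at five concentrations. At the GI50, growth is halved.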 The source made the active and inactive calls. Rule as the data show it: active = GI50 up to about 1.1 µM and inactive = higher.
# How the values were obtained:
# Assay in all cases: NCI anticancer screen, dose series, 48 h
# 786-0 = tested on: 786-0
# A498 = tested on: A498
# A549 = tested on: A549
# ACHN = tested on: ACHN
# BT-549 = tested on: BT-549
# CAKI-1 = tested on: CAKI-1
# CCRF-CEM = tested on: CCRF-CEM
# COLO 205 = tested on: COLO 205
# DU-145 = tested on: DU-145
# EKVX = tested on: EKVX
# HCC 2998 = tested on: HCC 2998
# HCT-116 = tested on: HCT-116
# HCT-15 = tested on: HCT-15
# HL-60 = tested on: HL-60
# HOP-62 = tested on: HOP-62
# HOP-92 = tested on: HOP-92
# HT-29 = tested on: HT-29
# Hs-578T = tested on: Hs-578T
# IGROV-1 = tested on: IGROV-1
# K562 = tested on: K562
# KM12 = tested on: KM12
# LOX IMVI = tested on: LOX IMVI
# M14 = tested on: M14
# MCF7 = tested on: MCF7
# MDA-MB-231 = tested on: MDA-MB-231
# MDA-MB-435 = tested on: MDA-MB-435
# MDA-N = tested on: MDA-N
# MOLT-4 = tested on: MOLT-4
# Malme-3M = tested on: Malme-3M
# NCI-H23 = tested on: NCI-H23
# NCI-H460 = tested on: NCI-H460
# NCI-H522 = tested on: NCI-H522
# NCI/ADR-RES = tested on: NCI/ADR-RES
# OVCAR-3 = tested on: OVCAR-3
# OVCAR-4 = tested on: OVCAR-4
# OVCAR-5 = tested on: OVCAR-5
# OVCAR-8 = tested on: OVCAR-8
# PC-3 = tested on: PC-3
# RPMI-8226 = tested on: RPMI-8226
# RXF 393 = tested on: RXF 393
# SF-268 = tested on: SF-268
# SF-295 = tested on: SF-295
# SF-539 = tested on: SF-539
# SK-MEL-28 = tested on: SK-MEL-28
# SK-MEL-2 = tested on: SK-MEL-2
# SK-MEL-5 = tested on: SK-MEL-5
# SK-OV-3 = tested on: SK-OV-3
# SN12C = tested on: SN12C
# SNB-19 = tested on: SNB-19
# SNB-75 = tested on: SNB-75
# SW-620 = tested on: SW-620
# T47D = tested on: T47D
# TK-10 = tested on: TK-10
# U-251 = tested on: U-251
# UACC-257 = tested on: UACC-257
# UACC-62 = tested on: UACC-62
# UO-31 = tested on: UO-31
# NCI-H226 = tested on: NCI-H226
compound,measurement,setting,value
C[C@]12CC[C@@H]3c4ccc(OP(=O)(O)O)cc4CC[C@H]3[C@@H]1CCC2=O,GI50,786-0,> 100 µM (inactive)
same,GI50,A498,> 100 µM (inactive)
same,GI50,A549,90.2 µM (inactive)
same,GI50,ACHN,> 100 µM (inactive)
same,GI50,BT-549,67.6 µM (inactive)
same,GI50,CAKI-1,> 100 µM (inactive)
same,GI50,CCRF-CEM,27.6 µM (inactive)
same,GI50,COLO 205,> 100 µM (inactive)
same,GI50,DU-145,> 100 µM (inactive)
same,GI50,EKVX,42.8 µM (inactive)
same,GI50,HCC 2998,> 100 µM (inactive)
same,GI50,HCT-116,55.1 µM (inactive)
same,GI50,HCT-15,> 100 µM
same,GI50,HL-60,71.4 µM (inactive)
same,GI50,HOP-62,> 100 µM (inactive)
same,GI50,HOP-92,> 100 µM (inactive)
same,GI50,HT-29,63.1 µM (inactive)
same,GI50,Hs-578T,41.3 µM (inactive)
same,GI50,IGROV-1,> 100 µM (inactive)
same,GI50,K562,46.3 µM (inactive)
same,GI50,KM12,54.5 µM (inactive)
same,GI50,LOX IMVI,95.9 µM (inactive)
same,GI50,M14,61.4 µM (inactive)
same,GI50,MCF7,> 100 µM (inactive)
same,GI50,MDA-MB-231,80.7 µM (inactive)
same,GI50,MDA-MB-435,67.5 µM (inactive)
same,GI50,MDA-N,58.5 µM (inactive)
same,GI50,MOLT-4,54 µM (inactive)
same,GI50,Malme-3M,> 100 µM (inactive)
same,GI50,NCI-H23,63.1 µM (inactive)
same,GI50,NCI-H460,91.6 µM (inactive)
same,GI50,NCI-H522,33.4 µM (inactive)
same,GI50,NCI/ADR-RES,56 µM (inactive)
same,GI50,OVCAR-3,62.8 µM (inactive)
same,GI50,OVCAR-4,50.9 µM (inactive)
same,GI50,OVCAR-5,> 100 µM (inactive)
same,GI50,OVCAR-8,> 100 µM (inactive)
same,GI50,PC-3,62.4 µM (inactive)
same,GI50,RPMI-8226,44.4 µM (inactive)
same,GI50,RXF 393,56.9 µM (inactive)
same,GI50,SF-268,> 100 µM (inactive)
same,GI50,SF-295,71.8 µM (inactive)
same,GI50,SF-539,81.8 µM (inactive)
same,GI50,SK-MEL-28,> 100 µM (inactive)
same,GI50,SK-MEL-2,62.5 µM (inactive)
same,GI50,SK-MEL-5,28.4 µM (inactive)
same,GI50,SK-OV-3,> 100 µM (inactive)
same,GI50,SN12C,70.1 µM (inactive)
same,GI50,SNB-19,> 100 µM (inactive)
same,GI50,SNB-75,68.9 µM (inactive)
same,GI50,SW-620,63.7 µM (inactive)
same,GI50,T47D,39.6 µM (inactive)
same,GI50,TK-10,> 100 µM (inactive)
same,GI50,U-251,93.3 µM (inactive)
same,GI50,UACC-257,> 100 µM (inactive)
same,GI50,UACC-62,66.2 µM (inactive)
same,GI50,UO-31,80.7 µM (inactive)
CCCCCc1cc2cc3c(c(O)c2c(=O)[nH]1)C1(CC3)C(=O)c2c(O)c3c(c(O)c2C1=O)C(=O)C(OC)=CC3=O (stereo not drawn),GI50,786-0,0.7 µM (active)
same,GI50,A498,2.31 µM (inactive)
same,GI50,A549,0.845 µM (active)
same,GI50,ACHN,0.522 µM (active)
same,GI50,BT-549,1.08 µM (active)
same,GI50,CAKI-1,0.259 µM (active)
same,GI50,CCRF-CEM,0.0859 µM (active)
same,GI50,COLO 205,0.206 µM (active)
same,GI50,DU-145,1.05 µM (active)
same,GI50,EKVX,0.916 µM (active)
same,GI50,HCC 2998,1.05 µM (active)
same,GI50,HCT-116,0.433 µM (active)
same,GI50,HCT-15,0.388 µM
same,GI50,HL-60,0.421 µM (active)
same,GI50,HOP-62,3.61 µM (inactive)
same,GI50,HOP-92,0.263 µM (active)
same,GI50,HT-29,0.718 µM (active)
same,GI50,Hs-578T,1.53 µM (inactive)
same,GI50,IGROV-1,1.28 µM (inactive)
same,GI50,K562,0.456 µM (active)
same,GI50,KM12,1.26 µM (inactive)
same,GI50,LOX IMVI,0.662 µM (active)
same,GI50,M14,0.893 µM (active)
same,GI50,MCF7,0.311 µM (active)
same,GI50,MDA-MB-231,0.479 µM (active)
same,GI50,MDA-MB-435,1.49 µM (inactive)
same,GI50,MDA-N,1.3 µM (inactive)
same,GI50,MOLT-4,0.56 µM (active)
same,GI50,Malme-3M,0.524 µM (active)
same,GI50,NCI-H226,1.45 µM (inactive)
same,GI50,NCI-H23,0.701 µM (active)
same,GI50,NCI-H460,0.863 µM (active)
same,GI50,NCI-H522,0.359 µM (active)
same,GI50,NCI/ADR-RES,1.17 µM (inactive)
same,GI50,OVCAR-3,0.44 µM (active)
same,GI50,OVCAR-4,0.822 µM (active)
same,GI50,OVCAR-5,2.98 µM (inactive)
same,GI50,OVCAR-8,0.622 µM (active)
same,GI50,PC-3,0.568 µM (active)
same,GI50,RPMI-8226,0.336 µM (active)
same,GI50,RXF 393,0.877 µM (active)
same,GI50,SF-268,0.946 µM (active)
same,GI50,SF-295,3.01 µM (inactive)
same,GI50,SK-MEL-28,2.01 µM (inactive)
same,GI50,SK-MEL-2,0.867 µM (active)
same,GI50,SK-MEL-5,0.64 µM (active)
same,GI50,SK-OV-3,2.61 µM (inactive)
same,GI50,SN12C,0.877 µM (active)
same,GI50,SNB-19,1.08 µM (active)
same,GI50,SNB-75,1.58 µM (inactive)
same,GI50,SW-620,0.442 µM (active)
same,GI50,T47D,0.239 µM (active)
same,GI50,U-251,0.601 µM (active)
same,GI50,UACC-257,0.444 µM (active)
same,GI50,UACC-62,1.24 µM (inactive)
same,GI50,UO-31,0.687 µM (active)
